{
  "source": "patent US20210198204A1",
  "about": "“PRODRUGS OF KALLIKREIN INHIBITORS” (BioCryst Pharmaceuticals, Inc., priority 2016, published 2021)",
  "data": [
    {"test": "Plasma pharmacokinetics of the parent compound after a single oral dose of prodrug", "format": "in vivo", "conditions": "single oral dose 10 mg/kg, fasted male Sprague Dawley rats; plasma analyzed for the parent compound; study duration 8 h", "description": "(§1) Plasma pharmacokinetics of compounds was determined using three male Sprague Dawley rats following a single oral dose administration. All animals were placed in a rat metabolic cage, isolated, and fasted approximately 15 hours prior to dosing. Identifying markers were placed on each animal. Each animal was weighed prior to dose administration. Animals were administered orally with a solution formulation of test compound either in water or a combination of water/propylene glycol, at a dose of 10 mg/kg. Gavage needles were attached to syringes and filled with appropriate amount of test article to be dosed. Blood samples (approximately 500 μL) were collected from three rats at pre-dose (time 0), 0.5, 1, 2, 4, 8, 12 and 24 hr, respectively, depending on study duration. Samples were collected into labeled micro centrifuge tubes containing (heparin solution) as an anticoagulant. Plasma was immediately harvested from the blood by centrifugation at 14,000 rpm for 3 min at 4° C., and stored below −70° C. until bioanalysis. Individual plasma samples were analyzed for the parent compound, 3-[2-(4-carbamimidoyl-phenylcarbamoyl)-5-methoxy-4-vinyl-phenyl]-6-(cyclopropylmethyl-carbamoyl)-pyridine-2-carboxylic acid. As shown in Table-1, the test compounds yielded varying degrees of exposure to the parent compound. The test compounds generally provided for improved bioavailability of the parent compound as compared to dosing of the parent compound in aqueous solutions.", "values": [
      {"smiles": "C=Cc1cc(C(=O)Nc2ccc(C(=N)NC(=O)OC(C)C)cc2)c(-c2ccc(C(=O)NCC3CC3)nc2C(=O)OC)cc1OC", "note": "[Compound 20b, methyl 6-((cyclopropylmethyl)carbamoyl)-3-(2-((4-(N-(isopropoxycarbonyl)carbamimidoyl)phenyl)carbamoyl)-5-methoxy-4-vinylphenyl)picolinate]", "AUC0-last hour (area under the curve)": "A (A = 0-1,000 ng/mL)"},
      {"smiles": "C=Cc1cc(C(=O)Nc2ccc(C(=N)N)cc2)c(-c2ccc(C(=O)NCC3CC3)nc2C(=O)OC(C)OC(=O)C(C)(C)C)cc1OC", "note": "(stereo not shown) [Compound 22d, 1-(pivaloyloxy)ethyl 3-(2-((4-carbamimidoylphenyl)carbamoyl)-5-methoxy-4-vinylphenyl)-6-((cyclopropylmethyl)carbamoyl)picolinate]", "AUC0-last hour (area under the curve)": "A (A = 0-1,000 ng/mL)"},
      {"smiles": "C=Cc1cc(C(=O)Nc2ccc(C(=N)N)cc2)c(-c2ccc(C(=O)NCC3CC3)nc2C(=O)O)cc1OC", "note": "[Compound 23e, 3-(2-((4-carbamimidoylphenyl)carbamoyl)-5-methoxy-4-vinylphenyl)-6-((cyclopropylmethyl)carbamoyl)picolinic acid]", "AUC0-last hour (area under the curve)": "B (B = 1,001-10,000 ng/mL)"},
      {"smiles": "C=Cc1cc(C(=O)Nc2ccc(C(=N)NC(=O)OCCCCCC)cc2)c(-c2ccc(C(=O)NCC3CC3)nc2C(=O)O)cc1OC", "note": "[Compound 24c, 6-((cyclopropylmethyl)carbamoyl)-3-(2-((4-(N-((hexyloxy)carbonyl)carbamimidoyl)phenyl)carbamoyl)-5-methoxy-4-vinylphenyl)picolinic acid]", "AUC0-last hour (area under the curve)": "A (A = 0-1,000 ng/mL)"},
      {"smiles": "C=Cc1cc(C(=O)Nc2ccc(C(=N)NC(=O)OCC)cc2)c(-c2ccc(C(=O)NCC3CC3)nc2C(=O)OCc2oc(=O)oc2C)cc1OC", "note": "[Compound 34a, (5-methyl-2-oxo-1,3-dioxol-4-yl)methyl 6-((cyclopropylmethyl)carbamoyl)-3-(2-((4-(N-(ethoxycarbonyl)carbamimidoyl)phenyl)carbamoyl)-5-methoxy-4-vinylphenyl)picolinate]", "AUC0-last hour (area under the curve)": "B (B = 1,001-10,000 ng/mL)"},
      {"smiles": "C=Cc1cc(C(=O)Nc2ccc(C(=N)NC(=O)OCCCCCC)cc2)c(-c2ccc(C(=O)NCC3CC3)nc2C(=O)OCc2oc(=O)oc2C)cc1OC", "note": "[Compound 35a, (5-methyl-2-oxo-1,3-dioxol-4-yl)methyl 6-((cyclopropylmethyl)carbamoyl)-3-(2-((4-(N-((hexyloxy)carbonyl)carbamimidoyl)phenyl)carbamoyl)-5-methoxy-4-vinylphenyl)picolinate]", "AUC0-last hour (area under the curve)": "B (B = 1,001-10,000 ng/mL)"},
      {"smiles": "C=Cc1cc(C(=O)Nc2ccc(C(=N)NC(=O)OCCCCCC)cc2)c(-c2ccc(C(=O)NCC3CC3)nc2C(=O)OC(C)OC(=O)C(C)C)cc1OC", "note": "(stereo not shown) [Compound 36b, 1-(isobutyryloxy)ethyl 6-((cyclopropylmethyl)carbamoyl)-3-(2-((4-(N-((hexyloxy)carbonyl)carbamimidoyl)phenyl)carbamoyl)-5-methoxy-4-vinylphenyl)picolinate]", "AUC0-last hour (area under the curve)": "C (C >10,000 ng/mL)"},
      {"smiles": "C=Cc1cc(C(=O)Nc2ccc(C(=N)N)cc2)c(-c2ccc(C(=O)NCC3CC3)nc2C(=O)OCOC(=O)CN)cc1OC.Cl", "note": "[Compound 37e, (2-aminoacetoxy)methyl 3-(2-((4-carbamimidoylphenyl)carbamoyl)-5-methoxy-4-vinylphenyl)-6-((cyclopropylmethyl)carbamoyl)picolinate Hydrochloride]", "AUC0-last hour (area under the curve)": "B (B = 1,001-10,000 ng/mL)"},
      {"smiles": "C=Cc1cc(C(=O)Nc2ccc(C(=N)NC(=O)OCCCCCC)cc2)c(-c2ccc(C(=O)NCC3CC3)nc2C(=O)OC(C)OC(=O)OC(C)C)cc1OC", "note": "(stereo not shown) [Compound 39a, 1-((isopropoxycarbonyl)oxy)ethyl 6-((cyclopropylmethyl)carbamoyl)-3-(2-((4-(N-((hexyloxy)carbonyl)carbamimidoyl)phenyl)carbamoyl)-5-methoxy-4-vinylphenyl)picolinate]", "AUC0-last hour (area under the curve)": "C (C >10,000 ng/mL)"},
      {"smiles": "C=Cc1cc(C(=O)Nc2ccc(C(=N)NC(=O)OCCCCCC)cc2)c(-c2ccc(C(=O)NCC3CC3)nc2C(=O)OC(C)OC(=O)OC(C)(C)C)cc1OC", "note": "(stereo not shown) [Compound 41a, 1-((tert-butoxycarbonyl)oxy)ethyl 6-((cyclopropylmethyl)carbamoyl)-3-(2-((4-(N-((hexyloxy)carbonyl)carbamimidoyl)phenyl)carbamoyl)-5-methoxy-4-vinylphenyl)picolinate]", "AUC0-last hour (area under the curve)": "B (B = 1,001-10,000 ng/mL)"}
    ]},
    {"test": "Plasma pharmacokinetics of the parent compound after a single oral dose of prodrug", "format": "in vivo", "conditions": "single oral dose 10 mg/kg, fasted male Sprague Dawley rats; plasma analyzed for the parent compound; study duration 12 h", "description": "as §1", "values": [
      {"smiles": "C=Cc1cc(C(=O)Nc2ccc(C(=N)N)cc2)c(-c2ccc(C(=O)NCC3CC3)nc2C(=O)OCc2oc(=O)oc2C)cc1OC", "note": "[Compound 19d, (5-methyl-2-oxo-1,3-dioxol-4-yl)methyl 3-(2-((4-carbamimidoylphenyl)carbamoyl)-5-methoxy-4-vinylphenyl)-6-((cyclopropylmethyl)carbamoyl)picolinate]", "AUC0-last hour (area under the curve)": "A (A = 0-1,000 ng/mL)"},
      {"smiles": "C=Cc1cc(C(=O)Nc2ccc(C(=N)NC(=O)OC(C)OC(C)=O)cc2)c(-c2ccc(C(=O)NCC3CC3)nc2C(=O)O)cc1OC", "note": "(stereo not shown) [Compound 23f, 3-(2-((4-(N-((1-acetoxyethoxy)carbonyl)carbamimidoyl)phenyl)carbamoyl)-5-methoxy-4-vinylphenyl)-6-((cyclopropylmethyl)carbamoyl)picolinic acid]", "AUC0-last hour (area under the curve)": "B (B = 1,001-10,000 ng/mL)"},
      {"smiles": "C=Cc1cc(C(=O)Nc2ccc(C(=N)N)cc2)c(-c2ccc(C(=O)NCC3CC3)nc2C(=O)OC(C)OC(=O)C(C)C)cc1OC", "note": "(stereo not shown) [Compound 29d, 1-(isobutyryloxy)ethyl 3-(2-(4-carbamimidoylphenylcarbamoyl)-5-methoxy-4-vinylphenyl)-6-(cyclopropylmethylcarbamoyl)picolinate]", "AUC0-last hour (area under the curve)": "B (B = 1,001-10,000 ng/mL)"},
      {"smiles": "C=Cc1cc(C(=O)Nc2ccc(C(=N)NC(=O)OCCCCCC)cc2)c(-c2ccc(C(=O)NCC3CC3)nc2C(=O)OCOC(=O)[C@@H](N)C(C)C)cc1OC", "note": "[Compound 31b, (S)-((2-amino-3-methylbutanoyl)oxy)methyl 6-((cyclopropylmethyl)carbamoyl)-3-(2-((4-(N-((hexyloxy)carbonyl)carbamimidoyl)phenyl)carbamoyl)-5-methoxy-4-vinylphenyl)picolinate]", "AUC0-last hour (area under the curve)": "B (B = 1,001-10,000 ng/mL)"},
      {"smiles": "C=Cc1cc(C(=O)Nc2ccc(C(=N)NC(=O)OCC)cc2)c(-c2ccc(C(=O)NCC3CC3)nc2C(=O)OCOC(=O)[C@@H](N)C(C)C)cc1OC", "note": "[Compound 32c, (S)-((2-amino-3-methylbutanoyl)oxy)methyl 6-((cyclopropylmethyl)carbamoyl)-3-(2-((4-(N-(ethoxycarbonyl)carbamimidoyl)phenyl)carbamoyl)-5-methoxy-4-vinylphenyl)picolinate]", "AUC0-last hour (area under the curve)": "B (B = 1,001-10,000 ng/mL)"},
      {"smiles": "C=Cc1cc(C(=O)Nc2ccc(C(=N)NC(=O)OC(C)OC(=O)[C@@H](N)C(C)C)cc2)c(-c2ccc(C(=O)NCC3CC3)nc2C(=O)O)cc1OC", "note": "(stereo partly drawn) [Compound 33c, 3-(2-((4-(N-((1-(((S)-2-amino-3-methylbutanoyl)oxy)ethoxy)carbonyl)carbamimidoyl)phenyl)carbamoyl)-5-methoxy-4-vinylphenyl)-6-((cyclopropylmethyl)carbamoyl)picolinic acid]", "AUC0-last hour (area under the curve)": "B (B = 1,001-10,000 ng/mL)"}
    ]}
  ]
}
